Laboratory results from patent publication US9040516B2, “Uracil derivative and use thereof for medical purposes” (SUMITOMO DAINIPPON PHARMA CO., LTD., priority 2011, dated 2015).

Legend:
[1] = target: T1, human neutrophil elastase (Homo sapiens, UniProt P08246); assay: Inhibitory action 2 against human neutrophil elastase (Test Example 2; fluorogenic substrate MeOSuc-AAPV-AMC, buffer with 400 mM NaCl, 0.2 mg/ml BSA); assay type: biochemical; details: 37° C., read-out: IC50 value (compound concentration required for 50% inhibition of human neutrophil elastase)
T1 construct: purchased Elastin Products Company
T1 sequence (P08246 30-267): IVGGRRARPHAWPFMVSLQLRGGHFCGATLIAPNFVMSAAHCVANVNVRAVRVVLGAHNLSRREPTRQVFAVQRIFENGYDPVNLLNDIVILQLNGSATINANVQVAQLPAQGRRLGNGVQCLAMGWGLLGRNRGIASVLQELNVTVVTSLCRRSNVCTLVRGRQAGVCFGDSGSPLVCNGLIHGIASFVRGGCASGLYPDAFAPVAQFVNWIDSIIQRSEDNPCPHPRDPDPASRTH
In short: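 HNE (0.4 unit/ml in buffer) preincubated 5 min at 37° C with compound in 200 mM HEPES pH 7.5, 400 mM NaCl, 0.2 mg/ml BSA; reaction started with MeOSuc-AAPV-AMC (0.5 mM stock) and run 5 min at 37° C. AMC fluorescence (ex 380, em 460 nm) gave percent inhibition.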

[2] = target: T1, human neutrophil elastase; assay: Inhibitory action against human neutrophil elastase (Test Example 1; fluorogenic substrate MeOSuc-AAPV-AMC, buffer with 2M NaCl, 0.002% Brij-35); assay type: biochemical; details: for IC50: 37° C., read-out: IC50 value (compound concentration required for 50% inhibition of human neutrophil elastase); for Inhibition ratio (%): at 100 μM
Method: Assay buffer (0.4 unit/ml HNE (human neutrophil elastase, available from Elastin Products Company), 200 mM HEPES [N-(2-hydroxyethyl)piperazine-N′-(2-ethanesulfonic acid)], pH 7.5, 2M NaCl, 0.002% Brij-35) 100 μl, water for injection 40 μl and DMSO (dimethyl sulfoxide) solution of the present compound 20 μl were mixed in a 96 well plate and the mixed solutions were pre-incubated at 37° C. for five minutes. After pre-incubation, MeOSuc-AAPV-AMC (methoxysuccinyl-alanyl-alanyl-prolyl-valyl-aminomethyl cumaride (available from Sigma Aldrich Co.) solution as fluorogenic substrate (which was dissolved in 10% DMSO solution so as to adjust to 0.5 mM) 40 μl was added to the above-prepared mixed solution so as to initiate the reaction, and the mixture was incubated at 37° C. for five minutes. The fluorescence intensity of AMC was measured at an excitation wavelength of 380 nm and a fluorescence wavelength of 460 nm and the inhibition ratio was determined.

IC50 [2] | Compound | also measured
19 nM | Cc1c(-c2ccnn2-c2ccc(C#N)cc2)c(=O)n(C)c(=O)n1-c1cccc(C(F)(F)F)c1 [Example 1, 4-[5-[3,6-dimethyl-2,4-dioxo-1-(3-trifluoromethylphenyl)-1,2,3,4-tetrahydropyrimidin-5-yl]-1H-pyrazol-1-yl]benzonitrile] | IC50 [1]: 16.9 nM
95 nM | Cc1c(-c2ccnn2-c2ccc(C#N)cc2)c(=O)n(C)c(=O)n1-c1cccc(Cl)c1 [Example 17, 4-[5-[1-(3-chlorophenyl)-3,6-dimethyl-2,4-dioxo-1,2,3,4-tetrahydropyrimidin-5-yl]-1H-pyrazol-1-yl]benzonitrile] | IC50 [1]: 23.4 nM
35 nM | CCCn1c(=O)c(-c2ccnn2-c2ccc(C#N)cc2)c(C)n(-c2cccc(C(F)(F)F)c2)c1=O [Example 2, 4-[5-[6-methyl-2,4-dioxo-3-propyl-1-(3-trifluoromethylphenyl)-1,2,3,4-tetrahydropyrimidin-5-yl]-1H-pyrazol-1-yl]benzonitrile] | IC50 [1]: 18.6 nM
– | Cc1c(-c2c(C(=O)N3CCCC3)cnn2-c2ccc(C#N)cc2)c(=O)n(C)c(=O)n1-c1cccc(C(F)(F)F)c1 [Example 162] | melting point: 227 °C; IC50 [1]: 12.6 nM
5400 nM | Cc1c(-c2ccnn2-c2ccc(C#N)cc2)c(=O)n(C)c(=O)n1-c1cccc(-c2ccccc2)c1 [Example 107, 4-(5-(1-(Biphenyl-3-yl)-3,6-dimethyl-2,4-dioxo-1,2,3,4-tetrahydropyrimidin-5-yl)-1H-pyrazol-1-yl)benzonitrile] | –
– | Cc1c(-c2ccnn2-c2ccccc2)c(=O)n(C)c(=O)n1-c1cccc(C(F)(F)F)c1 [Example 20, 3,6-dimethyl-5-(1-phenyl-1H-pyrazol-5-yl)-1-(3-trifluoromethylphenyl)pyrimidin-2,4(1H,3H)-dione] | Inhibition ratio (%) [2]: 83%
– | Cc1c(-c2ccnn2-c2ccc(C#N)cc2)c(=O)n(C)c(=O)n1-c1ccccc1C(F)(F)F [Example 15, 4-[5-[3,6-dimethyl-2,4-dioxo-1-(2-trifluoromethylphenyl)-1,2,3,4-tetrahydropyrimidin-5-yl]-1H-pyrazol-1-yl]benzonitrile] | Inhibition ratio (%) [2]: 76%
– | Cc1c(-c2c(C(N)=O)cnn2-c2ccc(C#N)cc2)c(=O)n(C)c(=O)n1-c1cccc(C(F)(F)F)c1 [Example 148] | melting point: 263 °C; IC50 [1]: 14.5 nM
47 nM | Cc1c(-c2ccnn2-c2ccc(C#N)cc2)c(=O)n(C)c(=O)n1-c1cccc([N+](=O)[O-])c1 [Example 18, 4-[5-[1-(3-nitrophenyl)-3,6-dimethyl-2,4-dioxo-1,2,3,4-tetrahydropyrimidin-5-yl]-1H-pyrazol-1-yl]benzonitrile] | –
104 nM | CCOC(=O)Cn1c(=O)c(-c2ccnn2-c2ccc(C#N)cc2)c(C)n(-c2cccc(C(F)(F)F)c2)c1=O [Example 3] | –
191 nM | Cc1cccc(-n2c(C)c(-c3ccnn3-c3ccc(C#N)cc3)c(=O)n(C)c2=O)c1 [Example 37, 4-(5-(3,6-dimethyl-2,4-dioxo-1-m-tolyl-1,2,3,4-tetrahydropyrimidin-5-yl)-1H-pyrazol-1-yl)benzonitrile] | IC50 [1]: 64.2 nM
138 nM | Cc1c(-c2ccnn2-c2ccc(C#N)cc2)c(=O)n(CC(=O)O)c(=O)n1-c1cccc(C(F)(F)F)c1 [Example 72, 2-[5-[1-(4-Cyanophenyl)-1H-pyrazole-5-yl]-4-methyl-2,6-dioxo-3-(3-trifluoromethylphenyl)-2,3-dihydropyrimidin-1(6H)-yl]acetic acid] | –
232 nM | Cc1c(-c2ccnn2-c2ccc(C#N)cc2)c(=O)n(C)c(=O)n1-c1cccc(Br)c1 [Example 34, 4-[5-[1-(3-bromophenyl)-3,6-dimethyl-2,4-dioxo-1,2,3,4-tetrahydropyrimidin-5-yl]-1H-pyrazol-1-yl]benzonitrile] | –
13900 nM | Cc1c(-c2ccnn2-c2ccc(C#N)cc2)c(=O)n(C)c(=O)n1-c1cccc(C(=O)N(C)C)c1 [Example 106, 3-[5-[1-(4-cyanophenyl)1H-pyrazol-5-yl]-3,6-dimethyl-2,4-dioxo-3,4-dihydropyrimidin-1(2H)yl]-N,N-dimethylbenzamide] | –
12200 nM | Cc1c(-c2ccnn2-c2ccc(C#N)cc2)c(=O)n(C)c(=O)n1-c1cccc(C(=O)O)c1 [Example 103, 3-[5-[1-(4-Cyanophenyl)-1H-pyrazol-5-yl]-3,6-dimethyl-2,4-dioxo-3,4-dihydropyrimidin-1(2H)yl]benzoic acid] | –
552 nM | Cn1c(=O)c(-c2ccnn2-c2ccc(C#N)cc2)c(N)n(-c2cccc(C(F)(F)F)c2)c1=O [Example 58, 4-[5-[6-Amino-3-methyl-2,4-dioxo-1-(3-trifluoromethylphenyl)-1,2,3,4-tetrahydropyrimidin-5-yl]-1H-pyrazol-1-yl]benzonitrile] | –
111 nM | Cc1c(-c2ccnn2-c2ccc(C#N)cc2)c(=O)n(CC=O)c(=O)n1-c1cccc(C(F)(F)F)c1 [Example 68] | –
74600 nM | Cc1c(-c2ccnn2-c2ccc(C#N)cc2)c(=O)n(C)c(=O)n1-c1cccc(C(F)(F)F)n1 [Example 33, 4-[5-[3,6-dimethyl-2,4-dioxo-1-(6-trifluoromethylpyridine-2-yl)-1,2,3,4-tetrahydropyrimidin-5-yl]-1H-pyrazol-1-yl]benzonitrile] | –
793 nM | Cc1c(-c2ccnn2-c2ccc(F)cc2)c(=O)n(C)c(=O)n1-c1cccc(C(F)(F)F)c1 [Example 22, 5-[1-(4-fluorophenyl)-1H-pyrazol-5-yl]-3,6-dimethyl-1-(3-trifluoromethylphenyl)pyrimidin-2,4(1H,3H)-dione] | –
19900 nM | Cc1c(-c2ccnn2-c2ccc(C#N)cc2)c(=O)n(C)c(=O)n1-c1cccc(S(C)(=O)=O)c1 [Example 39, 4-(5-(3,6-dimethyl-1-(3-(methylsulfonyl)phenyl)-2,4-dioxo-1,2,3,4-tetrahydropyrimidin-5-yl)-1H-pyrazol-1-yl)benzonitrile] | –
1360 nM | Cc1c(-c2ccnn2-c2ccc(C#N)cc2)c(=O)n(C)c(=O)n1-c1cccc(F)c1 [Example 11, 4-[5-[1-(3-fluorophenyl)-3,6-dimethyl-2,4-dioxo-1,2,3,4-tetrahydropyrimidin-5-yl]-1H-pyrazol-1-yl]benzonitrile] | –
– | Cc1c(-c2ccnn2-c2ccc(C#N)cc2)c(=O)n(C(C)C(N)=O)c(=O)n1-c1cccc(C(F)(F)F)c1 (centres unmarked) [Example 377] | melting point: 226 °C; IC50 [1]: 11 nM
169 nM | CC(=O)NCCn1c(=O)c(-c2ccnn2-c2ccc(C#N)cc2)c(C)n(-c2cccc(C(F)(F)F)c2)c1=O [Example 71, N-[2-[5-[1-(4-Cyanophenyl)-1H-pyrazol-5-yl]-4-methyl-2,6-dioxo-3-(3-trifluoromethylphenyl)-2,3-dihydropyrimidin-1(6H)-yl]ethyl]acetamide] | –
2240 nM | CN(C)C=Nc1c(-c2ccnn2-c2ccc(C#N)cc2)c(=O)n(C)c(=O)n1-c1cccc(C(F)(F)F)c1 [Example 28, N′-[5-[1-(4-cyanophenyl)-1H-pyrazol-5-yl]-1-methyl-2,6-dioxo-3-(3-trifluoromethylphenyl)-1,2,3,6-tetrahydropyrimidin-4-yl]-N,N-dimethylformimidamide] | –

Compound | IC50 [2] | also measured
2-[3,6-dimethyl-2,4-dioxo-1-(3-trifluoromethylphenyl)-1,2,3,4-tetrahydropyrimidin-5-yl]biphenyl-4-carbonitrile [Example 60] | 76 nM | –
